PubChem BioAssay AID504330 (The Scripps Research Institute Molecular Screening Center, 2011)
Calls of active or inactive are those of the source.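 The calls were made as follows: active = EC50 at or below 10 µM; inactive = the rest.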

Target: Caspase-7 (Homo sapiens) (UniProt P55210)
Experiment: potency of procaspase-7 enzyme activation – biochemical, absorbance, human, dual procaspase-3/-7 activator project, dose response (AID 504330)
Settings: recombinant procaspase-7 D3A, Ac-DEVD-pNA absorbance 405 nm

Chain of Caspase-7 (Homo sapiens) (P55210 whole entry D23A/D198A/D206A): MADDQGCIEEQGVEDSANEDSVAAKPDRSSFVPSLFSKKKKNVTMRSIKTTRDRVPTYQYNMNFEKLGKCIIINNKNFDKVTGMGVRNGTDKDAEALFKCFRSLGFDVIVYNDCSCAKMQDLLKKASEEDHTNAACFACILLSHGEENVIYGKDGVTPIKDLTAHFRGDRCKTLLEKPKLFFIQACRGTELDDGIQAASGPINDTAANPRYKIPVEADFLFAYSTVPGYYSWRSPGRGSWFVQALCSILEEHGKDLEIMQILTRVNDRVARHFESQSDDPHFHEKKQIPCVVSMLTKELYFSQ

EC50: > 85.3 µM (inactive)
Compound: CCOc1ccc(N=CC2=C(O)CC(c3ccco3)CC2=O)cc1 (stereo unspecified)
